Non-standard residues stand in square brackets, D forms with d. Residues, ends and D or L forms follow the SMILES beside them. Phe(ol) = N[C@H](CO)Cc1ccccc1; Aib = CC(C)(N)C(=O)O
Assays:
[1] = Voltage-clamp current recording of alamethicin pores in a vesicle-derived membrane over a chip aperture; format: biochemical; conditions: alamethicin 0.1 μg/mL final concentration in measurement compartment, 85 mM KCl
Protocol: In these experiments, a membrane is formed over an aperture in 85 mM KCl. Next, alamethicin is added to the measurement compartment, to a final concentration of 0.1 μg/mL.^xvii Finally, a potential is applied, and a plot of current versus time is generated.

[2] = system: nAChR (nicotinic acetylcholine receptor); experiment: Voltage-clamp current recording of nAChR fused into a membrane on a Si/SiO2 carrier chip; format: biochemical; conditions: carbamylcholine 20 μM final concentration
Protocol: In these experiments, a membrane is formed as above. Next, nAChR is introduced into the membrane via Ca^2+-mediated fusion. Specifically, nAChR is purified from an appropriate source, and then reconstituted into small unilamellar vesicles.^xviii Next, these vesicles are added to the measurement compartment, and then fused to the membrane by increasing the Ca^2+ concentration of the sample chamber to greater than about 1 mM. In given cases, the fusion is supported by the subsequent temporary setup of an osmotic gradient.^xix Finally, a potential is applied, and a plot of current versus time is generated. In the absence of agonists, typical receptor opening events are observed (FIG. 15A), whereas, in the presence of agonists, such as carbamylcholine (20 μM final concentration), such receptor opening events are substantially extinguished within a short time (t<100 seconds) (FIG. 15B).

SMILES	conductivities of the alamethicin pores [1] [pS]	receptor openings after addition of the agonist (desensitization) ([2]; 150 seconds after addition, 400 mM KCl, positive potentials)	time within which receptor opening events are substantially extinguished in the presence of agonist [2] [s]
CC(=O)NC(C)(C)C(=O)N1CCC[C@H]1C(=O)NC(C)(C)C(=O)N[C@@H](C)C(=O)NC(C)(C)C(=O)N[C@@H](C)C(=O)N[C@@H](CCC(N)=O)C(=O)NC(C)(C)C(=O)N[C@H](C(=O)NC(C)(C)C(=O)NCC(=O)N[C@@H](CC(C)C)C(=O)NC(C)(C)C(=O)N1CCC[C@H]1C(=O)N[C@H](C(=O)NC(C)(C)C(=O)NC(C)(C)C(=O)N[C@@H](CCC(=O)O)C(=O)N[C@@H](CCC(N)=O)C(=O)N[C@H](CO)Cc1ccccc1)C(C)C)C(C)C [alamethicin] (Ac-[Aib]P[Aib]A[Aib]AQ[Aib]V[Aib]GL[Aib]PV[Aib][Aib]EQ[Phe(ol)])	600		
C[N+](C)(C)CCOC(N)=O.[Cl-] [carbamylcholine]		no receptor openings are observed	< 100

— US7387715B2, “Sample positioning and analysis system” (priority 1997, dated 2008)
